Like-named read-outs stand apart in the source and are kept apart here.
Tests used:
Type in all cases: in vivo
Pieris Brassicae [1] = test: Persistence of insecticidal activity in the field, Pieris brassicae on cauliflower plants; settings: 0.5 percent; for mortality at 0.5 %: read-out: Mortality Percent of Pieris Brassicae Larvae
Source text: The persistence of insecticidal activity in the field using the insect Pieris brassicae was examined as follows:
Cauliflower plants grown under natural conditions in the field were sprinkled with an aqueous suspension of compounds according to this invention identified hereinabove as M 7361 and M 8157. For purposes of comparison, cauliflower plants were sprinkled with an aqueous suspension of a compound according to U.S. Pat. No. 3,819,678, identified hereinabove as M 7481.
After the respective time periods shown in Table 15, leaves of the sprinkled plants were picked and brought to the laboratory where they were infested with 10-day old larvae of Pieris brassicae and then kept under observation. The percent of mortality of the insects was determined 48 hours after infestation in all cases. The percent mortality of the control, unsprinkled cauliflower leaves, was zero.

Spodoptera Littoralis [2] = test: Persistence of insecticidal activity in the field, Spodoptera littoralis on Ricinus plants; settings: one percent, read-out: Mortality Percent of Spodoptera Littoralis Larvae
Source text: The persistence of insecticidal activity in the field using the insect Spodoptera littoralis was examined as follows:
Ricinus plants grown in the field under natural conditions were sprinkled with an aqueous suspension of the insecticidal compounds according to this invention designated hereinabove as M 7361 and M 8157. For purposes of comparison, an aqueous suspension of each of M 7481 and M 7488, according to U.S. Pat. No. 3,819,678 and identified above, was sprinkled on similarly grown Ricinus plants.
After the time periods shown in Table 16, leaves of the sprinkled plants were picked and brought to the laboratory where they were infested with 10-day old larvae of Spodoptera littoralis and then kept under observation. The mortality percent of the control unsprinkled leaves was zero.

[3] = test system: Leptinotarsa decemlineata; test: Persistence of insecticidal activity in the field, Leptinotarsa decemlineata on potato plants; settings: 0.2 percent
Source text: The persistence of insecticidal activity in the field using the insect Leptinotarsa decemlineata was examined as follows:
Potato plants grown in the field under natural conditions were sprinkled with an aqueous suspension of compound M 7361 which is according to this invention and identified hereinabove. For purposes of comparison, similarly grown potato plants were sprinkled with an aqueous suspension of the compounds M 7488 and M 7481, respectively, both according to U.S. Pat. No. 3,819,678 and identified above.
After the time periods shown in Table 17, leaves of the sprinkled plants were picked and brought to the laboratory where they were infested with 10 day-old larvae of Leptinotarsa decemlineata and then kept under observation. After 48 hours, the percent of mortality of the insects was determined. The mortality percent of the control unsprinkled leaves was zero.

Pieris Brassicae [4] = test: Biological activity on Pieris brassicae larvae, sprayed cut cauliflower leaves; settings: 0.1 percent, larvae, read-out: Percent of Mortality
Source text: Biological Activity on Pieris Brassicae (Lepidoptera)
Cut leaves of cauliflower were sprayed with an aqueous dispersion of compound according to this invention at a 0.1% concentration. After drying, they were infested with 5-day old larvae. The mortality percentage of the control, untreated leaves, was zero.
(§1) To show the variation in activity from one compound to another, depending on the species used, the activities of compounds according to this invention were investigated at different concentrations, expressed as percent of active principle, on various infesting species. The mortality percentage was computed in the same way as in the preceding examples.

Spodoptera Littoralis [5] = test: Biological activity on Spodoptera littoralis larvae, sprayed cut tobacco leaves; settings: 0.1 percent, larvae, 48 hours, read-out: Percent of Mortality
Source text: Biological Activity on Spodoptera Littoralis (Lepidoptera)
Cut tobacco leaves were sprayed with a 0.1% aqueous dispersion of compounds according to the present invention, shown in Table 12. After drying, the leaves were infested with 5-day old lepidopter larvae. The mortality percentage of the control was zero.
as §1

Tetranychus Urticae = test: Biological activity on Tetranychus urticae eggs, bean leaf discs; settings: foliar, read-out: Percent of Mortality
Source text: Biological Activity on Tetranychus Urticae (Acari)
Small discs of bean leaves were infested with acarus eggs and successively treated by spraying with an aqueous dispersion of a compound of this invention and Aminocarb as a comparison, at concentrations of 0.1 and 0.01%. The mortality percentage of the control, untreated discs, was zero.
as §1

Culex Pipiens = test: Biological activity on Culex pipiens (mosquito larvae in aqueous dispersion); settings: 24 h, read-out: Percent of Mortality
Source text: Biological Activity on Culex Pipiens (Diptera)
Mosquito larvae of the third and fourth ages were introduced into glass pots containing an aqueous dispersion of the compounds shown at 2 ppm and 0.2 ppm.
as §1

[6] = test system: Leptinotarsa Decimlineata; test: Biological activity on Leptinotarsa decemlineata larvae, sprayed potato seedlings; settings: read-out: Percent of Mortality
Source text: Biological Activity on Leptinotarsa Decimlineata Coleoptera
Potato seedlings cultivated in pots were infested with 4-day old larvae and sprayed with an aqueous dispersion of the compounds according to this invention and Aminocarb as a comparison at doses of […]; respectively. The mortality percentage of the control, untreated seedlings, was zero.
as §1

[7] = test system: Leptinotarsa Decimlineata; test: as above; settings: read-out: Percent of Mortality; remark: listed apart in the source
Macrosiphum Euphorbiae = test: Biological activity on Macrosiphum euphorbiae (aphides), potato seedlings sprayed with aqueous dispersion; settings: 24 h, read-out: Mortality Percent
Experimental: Biological Activity on Macrosiphum Euphorbiae (Aphides)
Potato seedlings, cultivated in pots, were infested with adult aphide females and, after a few hours, were sprayed with an aqueous dispersion of the compounds listed in Table 6. The mortality percentage was determined 24 hours after the treatment (on control non-treated seedlings, the mortality percentage was 0).
as §1

[8] = 120 h, 5 days after field treatment
[9] = 336 h, 14 days after field treatment
[10] = 264 h, 11 days after field treatment
[11] = 432 h, 18 days after field treatment
[12] = 600 h, 25 days after field treatment
[13] = 96 h, 4 days after field treatment
[14] = 168 h, 7 days after field treatment

SMILES	mortality at 1 % (Spodoptera Littoralis [2]; [8])	mortality at 1 % (Spodoptera Littoralis [2]; [10])	mortality at 1 % (Spodoptera Littoralis [2]; [9])	mortality at 1 % (Spodoptera Littoralis [2]; [11])	mortality at 1 % (Spodoptera Littoralis [2]; [12])	mortality at 1 % (Spodoptera Littoralis [2]; 2 hours after field treatment)	mortality at 0.2 % ([3]; 2 hours after field treatment)	mortality at 0.2 % [3, 13]	mortality at 0.2 % [3, 14]	mortality at 0.2 % [3, 10]	mortality at 0.2 % [3, 11]	mortality at 0.2 % [3, 12]	mortality at 0.1 % (Pieris Brassicae [4])	mortality at 0.1 % (Spodoptera Littoralis [5])	other results
CNC(=O)Oc1cc(C)c(N(C)CC=C(Cl)Cl)c(C)c1 [M 7481, reference compound]	100%	77%	60%	47%	40%	100%	100%	60%	20%	0%	0%	0%			time after which totally ineffective in the field (Pieris Brassicae [1]): 14 days; time at which activity begins to be lost in the field (Pieris Brassicae [1]): 2 to 5 days; mortality at 0.5 % (Pieris Brassicae [1]; 2 hours after field treatment): 100%; mortality at 0.5 % (Pieris Brassicae [1]; [8]): 55%; mortality at 0.5 % (Pieris Brassicae [1]; 216 h, 9 days after field treatment): 30%; mortality at 0.5 % (Pieris Brassicae [1]; [9]): 0%; mortality at 0.5 % (Pieris Brassicae [1]; 408 h, 17 days after field treatment): 0%; mortality at 0.5 % (Pieris Brassicae [1]; 528 h, 22 days after field treatment): 0%
CNC(=O)Oc1ccc(NCC=C(Cl)Cl)c(C)c1 [M 6432]													100%	100%	
CNC(=O)Oc1ccc(NCC(Cl)=C(Cl)Cl)c(C)c1 [M 6737]													100%	100%	mortality at 0.01 % (Tetranychus Urticae): 80%; mortality at 0.1 % (Tetranychus Urticae): 100%
CNC(=O)Oc1cc(C)c(N(CC=C(Cl)Cl)CC=C(Cl)Cl)c(C)c1 [M 7488, reference compound]	92%	47%	38%	22%	0%	100%	100%	70%	20%	10%	0%	0%			
CNC(=O)Oc1cccc(NCC(Cl)=C(Cl)Cl)c1 [M 6740]															mortality at 2 ppm (Culex Pipiens): 100%; mortality at 0.1 % [6]: 100%; mortality at 0.01 % [7]: 100%
CNC(=O)Oc1cc(C)ccc1NCC(Cl)=C(Cl)Cl [M 6773, N-methylcarbamate of 3-methyl-6-(2,3,3-trichloroallylamino)-phenol]															mortality at 0.01 % (Macrosiphum Euphorbiae): 75%

Reference: patent US4109011A, “Insecticide carbamates of N-(polychloroallyl)-amino-phenols” (priority 1975, dated 1978)
